Test results from article PMC8602566 (Frontiers in Oncology, 2021).

What was measured:
[1] = target: HDAC8 (Homo sapiens, UniProt Q9BY41); assay: HDACs inhibition assay, HDAC8
Method: (§2) The inhibition assays for HDACs were carried out according to standard protocols. […] The reaction was stopped by the addition of 45 μl of 100 mM HEPES (pH 7.5) and 0.08% sodium dodecyl sulfate (SDS). The substrate and the product were then separated electrophoretically using a LabChip 3000 system (Caliper Life Sciences, Hopkinton, MA) with blue laser excitation and green fluorescence detection.

[2] = test system: Human glioma cell line LN229; assay: MTT cell viability assay, LN229; type: cell-based; details: LN-229, MTT, 72 h, read-out: IC50 antiproliferative activity LN229
Method: (§1) Cell viability was measured using the 3-(4,5-dimethylthiazol-2-yl)-2,5-diphenyltetrazolium bromide (MTT) assay and was expressed as a ratio to the absorbance value at 570 nm of the control cells.

[3] = test system: U87 cells; assay: LDH release; type: cell-based, Human; details: increasing concentrations, 48 h
[4] = Plasma and brain distribution study; type: in vivo; details: mice, single administration, i.v. 5 mg/kg or p.o. 10 mg/kg
Source text: Discovery of drugs for the treatment of GBM encounters formidable challenges to their ability to cross the blood–brain barrier (BBB) ([31]). Thus, we further investigated the distribution of DMC-HA to identify whether it has the ability to cross the BBB. […] In addition, stable and durable distribution of DMC-HA in the brain was observed after p.o. administration. Nevertheless, optimization for the balance among potency, selectivity, metabolic stability, and brain permeability in a single molecule was challenging. These preliminary results provide valuable information for further structure optimization of DMC-HA and a guidance for its following in vivo studies.
Figure 5 Concentrations of DMC-HA in plasma and brain over time following a single administration in mice. Left, i.v. 5 mg/kg; right, p.o. 10 mg/kg.

[5] = test system: Human colon carcinoma cell line SW-620; assay: MTT cell viability assay, SW-620; type: cell-based; details: SW-620, MTT, 72 h, read-out: IC50 antiproliferative activity SW-620
Method: as §1

[6] = Hepatic microsome stability assay, mice; type: in vitro ADME; details: mouse liver microsomes, NADPH, 37°C, pH 7.4
Method: Metabolic stability was assessed in the presence of human, mouse, and rat liver microsomes (XenoTech, Lenexa, KS, USA). All liquid dispenses and transfer steps were performed with the Freedom Evo automated liquid handler (Tecan US). Compound stock solutions were initially prepared in 100% DMSO and subsequently diluted in acetonitrile for the assay. The pH of the reactions was kept at 7.4 with potassium phosphate buffer. The reaction wells were prepared by adding microsomes to a well and allowed to warm to 37°C. Then, compound was added to each well. The reactions were […] by adding cofactor reduced nicotinamide adenine dinucleotide phosphate (NADPH) to the reaction well containing microsomes and compounds. Negative controls received buffer only. Immediately after reactions started, 0-min aliquots were promptly collected and mixed in a separate well with ice cold acetonitrile to quench the reactions. The remainder of the reaction volume was incubated at 37°C with shaking. An additional aliquot was collected at 60 min after the start of the reaction and promptly quenched with ice cold acetonitrile. Samples were vortexed and centrifuged at 3,500 rpm for 10 min. The amount of compound in the supernatant was determined by liquid chromatography–tandem mass spectrometry (LC/MS/MS) (Thermo Fischer Scientific, San Jose, CA, USA), and the percent of parent compound remaining after 60 min was calculated. Results are the mean of each reaction triplicate, normalized to the internal standard, and expressed as the percent of compound remaining after the incubation time.
Structures that are active in vitro may not be potent in vivo due to their susceptibility to metabolism in the body. We then thoroughly examined the liver microsomal metabolic stability of DMC-HA across three different species (Table 3). […] In addition, the half-life of DMC-HA in human microsome is generally two to three times longer than those in mice and rats. Collectively, the in vitro liver microsomal stability of DMC-HA is favorable, guaranteeing its further in vivo studies.

[7] = test system: U87 cells; assay: Cell apoptosis assay by flow cytometry (Annexin V-FITC/PI); type: cell-based, Human; details: 10 μM, Annexin V/PI (control 3.3%)
Method: For apoptosis assays, 5 × 10^5 U87 cells were seeded into six-well plates for 24 h and treated with a range of concentrations of DMC-HA for 36 h. Annexin V-FITC/PI apoptosis detection kit was used to perform the apoptotic assay following the manufacturer’s instructions (Beyotime, Jiangsu, China). After treatment, 1 × 10^6 cells were washed using 1 ml binding buffer for three times, then centrifuged at 300×g and stained with 10 μl Annexin V-FITC solution at 37°C for 15 min. Before detecting, 5 μl PI solution was added to the samples, and the apoptotic cells were detected using flow cytometry (FACSCalibur BD, BD Biosciences, San Jose, CA, USA).
To further investigate the apoptotic effect of DMC-HA on GBM, we treated U87 cells with increasing concentrations of DMC-HA. After 48 h, the morphological changes of DMC-HA-treated U87 cells were observed, such as cell shrinking, rounding, and detachment (Figure 4A). […] To further confirm whether DMC-HA could induce apoptosis in U87 cells, cells were stained with Annexin V and PI after treatment with various concentrations of DMC-HA.

[8] = target: HDAC1 (Homo sapiens, UniProt Q13547); assay: HDACs inhibition assay, HDAC1
Sequence of HDAC1 (Q13547 whole entry): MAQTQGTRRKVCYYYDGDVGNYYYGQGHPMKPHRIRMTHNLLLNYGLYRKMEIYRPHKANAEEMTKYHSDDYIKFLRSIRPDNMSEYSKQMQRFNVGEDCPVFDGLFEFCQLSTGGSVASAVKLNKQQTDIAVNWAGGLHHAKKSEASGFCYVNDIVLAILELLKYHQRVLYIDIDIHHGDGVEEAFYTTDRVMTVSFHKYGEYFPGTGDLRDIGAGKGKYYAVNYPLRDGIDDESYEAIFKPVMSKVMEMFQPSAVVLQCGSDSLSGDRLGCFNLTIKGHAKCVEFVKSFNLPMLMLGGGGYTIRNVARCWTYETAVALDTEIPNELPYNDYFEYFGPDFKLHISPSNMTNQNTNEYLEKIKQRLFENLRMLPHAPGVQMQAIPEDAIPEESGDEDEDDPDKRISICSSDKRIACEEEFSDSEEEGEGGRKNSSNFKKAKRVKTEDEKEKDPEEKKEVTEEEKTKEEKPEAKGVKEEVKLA
Method: as §2

[9] = target: HDAC10 (Homo sapiens, UniProt Q969S8); assay: HDACs inhibition assay, HDAC10
Sequence of HDAC10 (Q969S8 whole entry): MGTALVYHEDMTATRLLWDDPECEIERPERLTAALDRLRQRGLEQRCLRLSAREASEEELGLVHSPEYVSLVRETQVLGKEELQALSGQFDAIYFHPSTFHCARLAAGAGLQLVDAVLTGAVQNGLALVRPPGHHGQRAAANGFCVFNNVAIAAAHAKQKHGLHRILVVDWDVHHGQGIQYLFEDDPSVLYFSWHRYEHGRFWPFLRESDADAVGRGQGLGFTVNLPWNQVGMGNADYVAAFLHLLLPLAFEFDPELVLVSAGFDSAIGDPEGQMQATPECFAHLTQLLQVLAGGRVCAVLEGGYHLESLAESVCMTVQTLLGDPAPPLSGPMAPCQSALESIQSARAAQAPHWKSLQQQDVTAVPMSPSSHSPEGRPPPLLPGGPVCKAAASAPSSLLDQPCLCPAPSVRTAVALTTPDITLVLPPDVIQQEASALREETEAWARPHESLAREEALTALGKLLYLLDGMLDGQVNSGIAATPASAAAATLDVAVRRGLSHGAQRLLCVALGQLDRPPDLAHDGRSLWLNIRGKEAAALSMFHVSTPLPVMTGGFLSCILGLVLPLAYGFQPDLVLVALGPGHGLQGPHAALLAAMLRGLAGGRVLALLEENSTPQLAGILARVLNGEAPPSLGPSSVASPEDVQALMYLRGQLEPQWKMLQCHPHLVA
Method: as §2

[10] = target: HDAC11 (Homo sapiens, UniProt Q96DB2); assay: HDACs inhibition assay, HDAC11
Sequence of HDAC11 (Q96DB2 whole entry): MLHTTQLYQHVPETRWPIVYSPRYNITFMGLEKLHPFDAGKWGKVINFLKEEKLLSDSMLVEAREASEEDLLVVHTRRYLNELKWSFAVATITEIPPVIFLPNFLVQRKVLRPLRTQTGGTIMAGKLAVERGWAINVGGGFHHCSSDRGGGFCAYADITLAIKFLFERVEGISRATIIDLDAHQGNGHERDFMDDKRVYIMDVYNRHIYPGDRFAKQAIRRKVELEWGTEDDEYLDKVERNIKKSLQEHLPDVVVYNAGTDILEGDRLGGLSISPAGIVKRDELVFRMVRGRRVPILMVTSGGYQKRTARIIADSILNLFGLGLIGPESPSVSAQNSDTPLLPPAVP
Method: as §2

[11] = target: HDAC4 (Homo sapiens, UniProt P56524); assay: HDACs inhibition assay, HDAC4
Sequence of HDAC4 (P56524 whole entry): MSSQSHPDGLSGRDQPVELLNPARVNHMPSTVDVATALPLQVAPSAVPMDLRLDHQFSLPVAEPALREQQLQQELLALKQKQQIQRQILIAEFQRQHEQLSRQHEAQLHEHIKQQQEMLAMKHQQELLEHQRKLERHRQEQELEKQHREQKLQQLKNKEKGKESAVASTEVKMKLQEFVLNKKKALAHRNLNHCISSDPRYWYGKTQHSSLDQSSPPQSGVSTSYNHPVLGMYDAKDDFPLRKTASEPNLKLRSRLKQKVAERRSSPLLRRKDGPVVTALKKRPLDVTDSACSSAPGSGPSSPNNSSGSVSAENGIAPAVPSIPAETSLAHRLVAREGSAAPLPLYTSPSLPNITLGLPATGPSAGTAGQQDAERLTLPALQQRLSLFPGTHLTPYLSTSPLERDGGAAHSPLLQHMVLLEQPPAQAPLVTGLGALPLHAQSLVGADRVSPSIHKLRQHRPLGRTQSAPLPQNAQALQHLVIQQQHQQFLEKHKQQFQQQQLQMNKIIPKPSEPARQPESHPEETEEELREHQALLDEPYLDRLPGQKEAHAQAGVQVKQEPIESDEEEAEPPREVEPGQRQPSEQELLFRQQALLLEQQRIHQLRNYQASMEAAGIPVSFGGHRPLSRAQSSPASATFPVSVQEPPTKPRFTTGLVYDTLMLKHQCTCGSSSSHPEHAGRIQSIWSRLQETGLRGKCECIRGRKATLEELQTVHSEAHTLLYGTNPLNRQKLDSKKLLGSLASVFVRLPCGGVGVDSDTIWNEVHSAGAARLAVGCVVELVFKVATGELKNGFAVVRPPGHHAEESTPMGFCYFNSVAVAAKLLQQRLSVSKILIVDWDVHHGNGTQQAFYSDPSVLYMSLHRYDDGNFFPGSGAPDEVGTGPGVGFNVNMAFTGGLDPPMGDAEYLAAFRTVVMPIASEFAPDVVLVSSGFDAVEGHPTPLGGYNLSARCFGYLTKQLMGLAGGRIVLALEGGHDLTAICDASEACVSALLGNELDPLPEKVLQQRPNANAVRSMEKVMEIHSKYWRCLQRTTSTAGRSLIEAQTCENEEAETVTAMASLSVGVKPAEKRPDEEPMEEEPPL
Method: as §2

[12] = test system: Human lung cancer cell line A549; assay: MTT cell viability assay, A549; type: cell-based; details: A549, MTT, 72 h, read-out: IC50 antiproliferative activity A549
Method: as §1

[13] = test system: all eight cell lines; assay: Antiproliferative activity, panel of eight cancer cell lines (summary); type: cell-based; details: Homo sapiens; summary over the eight cancer cell lines of Table 2; read-out: IC50 values against all eight cell lines
Method: Cells (5 × 10^4) were seeded into 96-well plates and exposed to vehicle (PBS) or different concentrations of compounds for 72 h. Cell viability was measured using the 3-(4,5-dimethylthiazol-2-yl)-2,5-diphenyltetrazolium bromide (MTT) assay and was expressed as a ratio to the absorbance value at 570 nm of the control cells.
As DMC-HA was identified as a potent novel inhibitor for HDACs, its antiproliferative activities on a panel of cancer cell lines and normal cells were evaluated, including four glioma cell lines, and the results are shown in Table 2. Vorinostat and curcumin were also tested as positive controls. […].

[14] = target: HDAC6 (Homo sapiens, UniProt Q9UBN7); assay: HDACs inhibition assay, HDAC6
Sequence of HDAC6 (Q9UBN7 whole entry): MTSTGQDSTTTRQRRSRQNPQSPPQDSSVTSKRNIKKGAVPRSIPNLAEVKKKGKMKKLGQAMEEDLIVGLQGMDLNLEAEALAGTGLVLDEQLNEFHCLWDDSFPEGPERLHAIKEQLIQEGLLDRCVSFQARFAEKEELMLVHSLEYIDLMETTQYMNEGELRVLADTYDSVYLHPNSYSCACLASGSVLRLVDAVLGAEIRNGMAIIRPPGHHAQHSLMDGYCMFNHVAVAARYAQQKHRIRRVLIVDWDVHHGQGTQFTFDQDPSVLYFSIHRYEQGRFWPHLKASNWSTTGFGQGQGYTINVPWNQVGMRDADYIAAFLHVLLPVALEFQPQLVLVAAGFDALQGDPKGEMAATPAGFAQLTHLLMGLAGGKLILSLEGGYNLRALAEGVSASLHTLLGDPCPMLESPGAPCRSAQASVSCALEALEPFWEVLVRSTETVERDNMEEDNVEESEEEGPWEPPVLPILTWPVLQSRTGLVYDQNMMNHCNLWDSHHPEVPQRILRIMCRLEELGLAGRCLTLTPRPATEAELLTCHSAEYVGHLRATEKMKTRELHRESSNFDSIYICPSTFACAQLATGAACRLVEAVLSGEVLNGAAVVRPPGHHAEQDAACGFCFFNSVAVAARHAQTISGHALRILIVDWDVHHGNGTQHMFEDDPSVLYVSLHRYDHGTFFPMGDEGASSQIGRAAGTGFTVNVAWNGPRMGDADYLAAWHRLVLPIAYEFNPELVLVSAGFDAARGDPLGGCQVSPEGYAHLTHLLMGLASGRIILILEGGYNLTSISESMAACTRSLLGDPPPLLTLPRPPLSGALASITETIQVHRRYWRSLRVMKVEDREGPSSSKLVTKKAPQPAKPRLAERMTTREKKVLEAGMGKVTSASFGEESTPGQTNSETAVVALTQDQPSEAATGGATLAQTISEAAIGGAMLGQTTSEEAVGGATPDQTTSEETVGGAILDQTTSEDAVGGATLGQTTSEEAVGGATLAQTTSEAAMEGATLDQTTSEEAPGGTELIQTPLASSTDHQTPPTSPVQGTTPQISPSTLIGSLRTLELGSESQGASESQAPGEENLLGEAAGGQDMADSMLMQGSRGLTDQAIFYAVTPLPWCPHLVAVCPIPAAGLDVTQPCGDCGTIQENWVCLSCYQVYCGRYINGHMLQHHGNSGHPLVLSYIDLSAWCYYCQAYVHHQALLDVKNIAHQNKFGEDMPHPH
Method: as §2

[15] = target: HDAC3 (Homo sapiens, UniProt O15379); assay: HDACs inhibition assay, HDAC3
Sequence of HDAC3 (O15379 whole entry): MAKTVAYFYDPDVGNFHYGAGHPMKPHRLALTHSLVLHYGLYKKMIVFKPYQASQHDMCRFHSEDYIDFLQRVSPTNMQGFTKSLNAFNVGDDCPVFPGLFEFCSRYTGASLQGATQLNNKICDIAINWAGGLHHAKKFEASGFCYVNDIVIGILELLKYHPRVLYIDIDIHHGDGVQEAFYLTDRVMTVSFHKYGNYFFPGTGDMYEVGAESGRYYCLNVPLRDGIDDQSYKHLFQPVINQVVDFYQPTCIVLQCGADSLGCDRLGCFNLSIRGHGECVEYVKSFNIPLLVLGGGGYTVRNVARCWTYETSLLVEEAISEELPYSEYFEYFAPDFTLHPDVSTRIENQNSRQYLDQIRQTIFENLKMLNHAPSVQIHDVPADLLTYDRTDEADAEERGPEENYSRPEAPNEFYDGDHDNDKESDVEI
Sequence of HDAC3 (Q9Y618 395-489 partner limits assumed): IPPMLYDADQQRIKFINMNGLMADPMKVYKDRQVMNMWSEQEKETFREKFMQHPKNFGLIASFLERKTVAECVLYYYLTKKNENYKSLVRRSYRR
Method: as §2

Sequence of HDAC8 (Q9BY41 whole entry): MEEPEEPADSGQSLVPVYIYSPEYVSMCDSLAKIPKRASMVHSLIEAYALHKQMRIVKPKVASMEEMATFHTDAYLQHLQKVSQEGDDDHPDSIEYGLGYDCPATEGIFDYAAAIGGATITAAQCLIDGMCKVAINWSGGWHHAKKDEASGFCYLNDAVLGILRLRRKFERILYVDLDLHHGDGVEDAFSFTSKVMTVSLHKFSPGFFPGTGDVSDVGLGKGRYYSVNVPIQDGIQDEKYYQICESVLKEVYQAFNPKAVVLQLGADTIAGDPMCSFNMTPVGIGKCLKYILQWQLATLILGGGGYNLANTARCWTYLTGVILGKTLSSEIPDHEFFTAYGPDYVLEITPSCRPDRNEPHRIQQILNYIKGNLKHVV

For COc1cc(/C=C/C(=O)CC(=O)/C=C/c2ccc(/C=C/C(=O)NO)cc2)ccc1O [DMC-HA], the IC50 [1] was 2930 nM, the IC50 [2] was 3.38 ± 0.29 µM and the “LDH release / cell death” value [3] was “induces cell death in a dose-dependent manner”. The “ability to cross the BBB” value [4] was “can indeed penetrate the BBB”, the Kp ([4]; mouse, brain and plasma, other: intravenous and oral (i.v. and p.o. arms), over time, read-out: brain-to-plasma ratios) was 0.08 to 0.23 and the IC50 [5] was 3.22 ± 0.3 µM. For the same molecule, the “Mice Liver Microsomal Stability T1/2” value [6] was 32.7 min, the microsomal CLint [6] was 43.2 µL/min/mg and the total apoptotic cells [7] was 90.0%. For the same molecule, the IC50 [8] was 510 nM, the IC50 [9] was 8.39 µM and the IC50 [10] was over 10 µM. It also gave an IC50 [11] of over 10 µM, an IC50 [12] of 5.33 ± 0.93 µM and an IC50 [13] of under 5.3 µM. For the same molecule, the IC50 [14] was 380 nM and the IC50 [15] was 1670 nM.
